Assay results from patent publication US20080318993A1 (Endo Pharmaceuticals, Inc., priority 2007, published 2008).
“And” between values parts separate entries of the source, which are not always exact repeats. Identical values can stand only once. Like-named read-outs stand apart in the source and are kept apart here.

Tests used:
[1] = Example 5: plasma pharmacokinetics of EN3202 20 mg in hepatic impairment vs healthy controls; conditions: for AUC / AUC(0-t) / Cmax / Tmax / half-life: human, plasma, oral, 20 mg; for AUC(0-t): AUCT; for Tmax: median (range); for increase in average AUC relative to controls: arithmetic means; for AUC increase relative to healthy controls / Cmax increase relative to healthy controls: log-transformed comparison
Protocol: (§1) While in the clinic, the subjects were to refrain from strenuous physical activity.
All study medications were supplied by the sponsor. […] A single 20 mg dose EN3202 was administered following an overnight fast (from approximately 22:00 on the evening prior to dose administration) at approximately 08:00, and participants were not allowed to eat until at least four hours after the dose.
All doses were administered with 240 mL of ambient water. Participants were instructed to drink all of the water.
Pharmacokinetic parameters were calculated using model-independent methods.
All pharmacokinetic results are summarized using appropriate descriptive statistics. […] One-way ANOVA was conducted using the model PKVAR=group, where group was mild hepatic impairment, moderate-severe hepatic impairment, or healthy control. Point estimates of the impaired versus control group differences and the corresponding 90% confidence limits were constructed.

[2] = Example 5: urinary excretion of oxymorphone and metabolites in hepatic impairment vs healthy controls; conditions: for mean amount excreted in the urine: percent of administered dose, through 120 hours
From the text: as §1

[3] = 10 mg oral dose, cited from earlier work
[4] = orally administered (oral solution), hydrochloride, cited from earlier work
[5] = Moderate-Severe Impairment, mean (SD)
[6] = Subject 006 (Child-Pugh Class B)
[7] = Subject 007 (Child-Pugh Class A)
[8] = Subject 009 (Child-Pugh Class B)
[9] = Subject 010 (Child-Pugh Class B)
[10] = Subject 011 (Child-Pugh Class C)
[11] = moderate-severe hepatic impairment

CN1CC[C@]23c4c5ccc(O)c4O[C@H]2C(=O)CC[C@@]3(O)[C@H]1C5.Cl [Oxymorphone, 14-hydroxydihydromorphinone hydrochloride]
λz ([1]; Healthy Controls, mean (SD)): 0.0970 (0.0540) hr^−1 | CL/F ([1]; Healthy Controls, mean (SD), hydrochloride): 21.15 (13.54) L/min | CL/F ([1]; Healthy Controls, mean (SD), listed as oxymorphone, hydrochloride): 21.15 L/min | CL/F ([1]; Mild Impairment, mean (SD)): 13.30 (5.81) L/min | λz ([1]; Mild Impairment, mean (SD)): 0.0830 (0.0392) hr^−1 | CL/F [1, 5]: 7.17 (5.08) L/min | λz [1, 5]: 0.0970 (0.0365) hr^−1 | CL/F [1, 6]: 7.34 L/min | CL/F [1, 7]: 4.45 L/min | CL/F [1, 8]: 1.38 L/min | CL/F [1, 9]: 7.63 L/min | CL/F [1, 10]: 1.33 L/min | AUC ([1]; AUC, Healthy Controls, mean (SD), single 20 mg EN3202, fasting): 20.6 ng·h/mL | AUC ([1]; AUC, Mild Impairment, mean (SD), single 20 mg EN3202, fasting): 32.1 ng·h/mL | AUC ([1]; AUC, Moderate-Severe Impairment, mean (SD), single 20 mg EN3202, fasting): 106 ng·h/mL | AUC ([1]; AUC, Subject 006 (Child-Pugh Class B)): 45.4 ng·h/mL | AUC ([1]; AUC, Subject 007 (Child-Pugh Class A)): 74.8 ng·h/mL | AUC ([1]; AUC, Subject 009 (Child-Pugh Class B)): 241 ng·h/mL | AUC ([1]; AUC, Subject 010 (Child-Pugh Class B)): 43.7 ng·h/mL | AUC ([1]; AUC, Subject 011 (Child-Pugh Class C)): 250 ng·h/mL | AUC(0-t) ([1]; Healthy Controls, mean (SD)): 18 ng·h/mL | AUC(0-t) ([1]; Mild Impairment, mean (SD)): 30 ng·h/mL | AUC(0-t) [1, 5]: 104 ng·h/mL | Cmax ([1]; Healthy Controls, mean (SD)): 1.73 ng/mL | Cmax ([1]; Mild Impairment, mean (SD)): 3.98 ng/mL | Cmax [1, 5]: 9.16 ng/mL | Cmax [1, 6]: 4.31 ng/mL | Cmax [1, 7]: 11.4 ng/mL | Cmax [1, 8]: 19.6 ng/mL | Cmax [1, 9]: 3.72 ng/mL | Cmax [1, 10]: 23.6 ng/mL | Cmax ([1]; range among subjects, control group): 0.64 to 2.83 ng/mL | Cmax ([1]; range among subjects, mild impairment): 0.86 to 11.4 ng/mL | Cmax ([1]; range among subjects, moderate-severe impairment): 1.66 to 23.6 ng/mL | AUC ([1]; Individual AUC results, range, healthy controls): 6.18 to 33.9 ng·h/mL | AUC ([1]; Individual AUC results, range, subjects with mild impairment): 15.3 to 74.8 ng·h/mL | AUC ([1]; Individual AUC results, range, subjects with moderate-severe impairment): 24.9 to 250 ng·h/mL | Tmax ([1]; Healthy Controls): 3.5 h | Tmax ([1]; Mild Impairment): 1.75 h | Tmax ([1]; Moderate-Severe Impairment): 1.5 h | half-life ([1]; T½, Healthy Controls, mean (SD)): 9.98 h | half-life ([1]; T½, Mild Impairment, mean (SD)): 11.8 h | half-life ([1]; T½, Moderate-Severe Impairment, mean (SD)): 8.04 h | AUC ([1]; mean AUC after excluding Subject 007, mild group): 23.6 ng·h/mL | AUC ([1]; median AUC, control group): 23.8 ng·h/mL | AUC ([1]; median AUC, mildly-impaired group): 24.7 ng·h/mL | half-life ([1]; plasma elimination half-life, Subject 009): 6.96 h | half-life ([1]; plasma elimination half-life, Subject 011): 10.7 h | increase in average AUC relative to controls ([1]; mild hepatic impairment): approximately 1.56 fold | AUC increase relative to healthy controls ([1]; mild hepatic impairment): 1.52 fold | elimination rate constant ratio, 90% confidence limits ([1]; mild impairment): 0.58-1.31 | elimination rate constant, ratio to healthy controls ([1]; mild impairment): 0.87 | Cmax increase relative to healthy controls ([1]; mild impairment): 1.68 fold | elimination rate constant ratio, 90% confidence limits ([1]; moderate-severe impairment): 0.74-1.66 | elimination rate constant, ratio to healthy controls ([1]; moderate-severe impairment): 1.11 | increase in average AUC relative to controls ([1]; moderate-severe impairment): 5.13 fold | Cmax increase relative to healthy controls ([1]; moderate-severe impairment): 3.41 fold | AUC increase relative to healthy controls ([1]; moderate-to-severe hepatic impairment, hydrochloride): 3.61 fold and 3,6 fold | AUC increase in individual subjects ([1]; two of six subjects with moderate or severe liver disease): up to 10 fold | urinary excretion essentially complete by ([2]; after single 20 mg dose): by the end of the 48 to 72 hour collection interval | mean amount excreted in the urine ([2]; control group): 0.5% | administered dose excreted unchanged in the urine ([2]; discussion statement): Less than 1% | mean amount excreted in the urine ([2]; mild hepatic impairment): 1.2% | increase in the amount excreted in the urine [2, 11]: approximately 8 fold | mean amount excreted in the urine [2, 11]: 4.1% | recovery in the first 24 hours, of the amount recovered [3]: 82% | recovery in the first 24 hours, of the dose [3]: ~42% | unchanged oxymorphone recovered in the urine [3]: 1.9% | administered dose recovered in the urine ([3]; 120-hour collection interval, 10 healthy subjects, average): 49% | Conjugated oxymorphone, average of the administered dose ([3]; urine): 44.1% | oral / average absolute bioavailability [4]: about 10% | oral / average absolute bioavailability ([4]; listed as oxymorphone): approximately 10%
